Test results: patent US20240109918A1, “HETEROCYCLIC COMPOUNDS AND USES THEREOF” (Kumquat Biosciences Inc., priority 2022, published 2024)

biological target: T1, KRASG12D (Homo sapiens, UniProt P01116, G12D); experiment: Bio-Biochem-PPI-HTRF Ras-SOS1 interaction assay (KRAS G12D); format: biochemical; settings: 5 nM
T1 construct: made in house; host or cells: E. coli BL21 (DE3)
Method: The assay buffer can contain −5 mM HEPES pH 7.4, ˜150 mM NaCl, ˜ 1 mM DTT, 0.05% BSA and 0.0025% (v/v) Igepal. A Ras working solution is prepared in an assay buffer containing typically a suitable amount of the protein construct (e.g., GST-tagged K-Ras mutant) and the FRET donor (e.g., antiGST-Eu(K) from Cisbio, France). A SOS1 working solution is prepared in an assay buffer containing suitable amount of the protein construct (e.g., His-hSOS1) and the FRET acceptor (e.g., anti-6His-XL665 from Cisbio, France). A suitable amount of the protein construct will depend on the range of activity or range of IC50 values being detected or under investigation. For detecting IC50 within a range of 500 nM, the protein constructs of the same range of molarity can be utilized. […] A fixed volume of DMSO with or without test compound is transferred into a 384-well plate. Ras working solution is added to all wells of the test plate. SOS1 working solution is added to all wells except for those that are subsequently filled the inhibitor control solution. Upon incubation for about 10 minutes or longer, the fluorescence is measured with a M1000Pro plate reader (Tecan) using HTRF detection (excitation 337 nm, emission 1:620 nm, emission 2: 665 nm). Compounds are tested in duplicates at different concentrations (for example, 10 μM, 2.5 μM, 0.63 μM, 0.16 μM, 0.04 μM, 0.01 μM test compound). The ratiometric data (i.e., emission 2 divided by emission 1) is used to calculate IC50 values against Ras using GraphPad Prism (GraphPad software). Following this general procedure, samples were tested with or without a subject compound disclosed herein including compounds exemplified in Table 1 to assess their abilities to inhibit a mutant K-Ras relative to another mutant K-Ras or wildtype K-Ras. Signaling output measured in terms of IC50 values can be obtained, a ratio of IC50 against one mutant relative to another mutant can be calculated. For instance, a selective reduction of K-Ras G12D signaling output can be evidenced by a ratio greater than one. In particular, a selective reduction of K-Ras G12D signaling relative to K-Ras WT signaling is evidenced as the ratio of IC50 (against K-Ras WT) to IC50 (against K-Ras G12D) is greater than 1.

T1 sequence (P01116 1-188 isoform P01116-2 G12D): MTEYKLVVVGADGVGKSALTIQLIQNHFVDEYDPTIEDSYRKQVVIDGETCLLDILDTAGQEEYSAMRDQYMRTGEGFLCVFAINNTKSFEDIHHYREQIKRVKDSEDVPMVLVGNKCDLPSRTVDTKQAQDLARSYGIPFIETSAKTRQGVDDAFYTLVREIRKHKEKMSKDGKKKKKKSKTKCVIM

IC50, < 5 µM:
N#Cc1c(N)sc2c(F)ccc(-c3c(Cl)cc4c(N5CCCCC6(CN(C(=O)CC7CC7(F)F)C6)C5)nc(OC[C@@]56CCCN5C[C@H](F)C6)nc4c3F)c12 (stereo partly drawn) [compound 331, 2-amino-4-(6-chloro-4-(2-(2-(2,2-difluorocyclopropyl)acetyl)-2,6-diazaspiro[3.6]decan-6-yl)-8-fluoro-2-(((2R,7aS)-2-fluorotetrahydro-1H-pyrrolizin-7a(5H)-yl)methoxy)quinazolin-7-yl)-7-fluorobenzo[b]thiophene-3-carbonitrile]
N#Cc1c(N)sc2c(F)ccc(-c3c(Cl)cc4c(N5CCCCC6(CN(C(=O)CC7COC7)C6)C5)nc(OC[C@@]56CCCN5C[C@H](F)C6)nc4c3F)c12 [compound 297, 2-amino-4-(6-chloro-8-fluoro-2-(((2R,7aS)-2-fluorotetrahydro-1H-pyrrolizin-7a(5H)-yl)methoxy)-4-(2-(2-(oxetan-3-yl)acetyl)-2,6-diazaspiro[3.6]decan-6-yl)quinazolin-7-yl)-7-fluorobenzo[b]thiophene-3-carbonitrile]
N#Cc1c(N)sc2c(F)ccc(-c3c(Cl)cc4c(N5CCCCC6(CN(C(=O)C(F)Cl)C6)C5)nc(OC[C@@]56CCCN5C[C@H](F)C6)nc4c3F)c12 (stereo partly drawn) [compound 291, 2-amino-4-(6-chloro-4-(2-(2-chloro-2-fluoroacetyl)-2,6-diazaspiro[3.6]decan-6-yl)-8-fluoro-2-(((2R,7aS)-2-fluorotetrahydro-1H-pyrrolizin-7a(5H)-yl)methoxy)quinazolin-7-yl)-7-fluorobenzo[b]thiophene-3-carbonitrile]
CN1CCC[C@H]1COc1nc(N2CCOC3(CNC3)C2)c2cc(Cl)c(-c3ccc(F)c4sc(N)c(C#N)c34)c(F)c2n1 (single isomer, unassigned; atropisomer 2) [compound 121]
N#Cc1c(N)sc2c(F)ccc(-c3c(Cl)cc4c(N5CCCCC6(CN(C(=O)C7CC(C#N)C7)C6)C5)nc(OC[C@@]56CCCN5C[C@H](F)C6)nc4c3F)c12 (stereo partly drawn) [compound 295, 2-amino-4-(6-chloro-4-(2-(3-cyanocyclobutane-1-carbonyl)-2,6-diazaspiro[3.6]decan-6-yl)-8-fluoro-2-(((2R,7aS)-2-fluorotetrahydro-1H-pyrrolizin-7a(5H)-yl)methoxy)quinazolin-7-yl)-7-fluorobenzo[b]thiophene-3-carbonitrile]
N#Cc1c(N)sc2c(F)ccc(-c3c(Cl)cc4c(N5CCCCC6(CN(C(=O)N7CC(C(F)F)C7)C6)C5)nc(OC[C@@]56CCCN5C[C@H](F)C6)nc4c3F)c12 [compound 262, 2-amino-4-(6-chloro-4-(2-(3-(difluoromethyl)azetidine-1-carbonyl)-2,6-diazaspiro[3.6]decan-6-yl)-8-fluoro-2-(((2R,7aS)-2-fluorotetrahydro-1H-pyrrolizin-7a(5H)-yl)methoxy)quinazolin-7-yl)-7-fluorobenzo[b]thiophene-3-carbonitrile]
N#Cc1c(N)sc2c(F)ccc(-c3c(Cl)cc4c(N5CCCCC6(CN(C(=O)N7CC[C@H]7C#N)C6)C5)nc(OC[C@@]56CCCN5C[C@H](F)C6)nc4c3F)c12 [compound 264, (2S)-1-(6-(7-(2-amino-3-cyano-7-fluorobenzo[b]thiophen-4-yl)-6-chloro-8-fluoro-2-(((2R,7aS)-2-fluorotetrahydro-1H-pyrrolizin-7a(5H)-yl)methoxy)quinazolin-4-yl)-2,6-diazaspiro[3.6]decane-2-carbonyl)azetidine-2-carbonitrile]
N#Cc1c(N)sc2c(F)ccc(-c3c(Cl)cc4c(N5CCCCC6(CN(C(=O)C7C8COCC87)C6)C5)nc(OC[C@@]56CCCN5C[C@H](F)C6)nc4c3F)c12 (stereo partly drawn) [compound 299, 4-(4-(2-(3-oxabicyclo[3.1.0]hexane-6-carbonyl)-2,6-diazaspiro [3.6]decan-6-yl)-6-chloro-8-fluoro-2-(((2R,7aS)-2-fluorotetrahydro-1H-pyrrolizin-7a(5H)-yl)methoxy)quinazolin-7-yl)-2-amino-7-fluorobenzo[b]thiophene-3-carbonitrile]
N#Cc1c(N)sc2c(F)ccc(-c3c(Cl)cc4c(N5CCCCC6(CN(C(=O)N7CC(F)(F)C7)C6)C5)nc(OC[C@@]56CCCN5C[C@H](F)C6)nc4c3F)c12 [compound 307, 2-amino-4-(6-chloro-4-(2-(3,3-difluoroazetidine-1-carbonyl)-2,6-diazaspiro[3.6]decan-6-yl)-8-fluoro-2-(((2R,7aS)-2-fluorotetrahydro-1H-pyrrolizin-7a(5H)-yl)methoxy)quinazolin-7-yl)-7-fluorobenzo[b]thiophene-3-carbonitrile]
N#Cc1c(N)sc2c(F)ccc(-c3c(Cl)cc4c(N5CCCCC6(CN(C(=O)NC7(C(F)(F)F)CC7)C6)C5)nc(OC[C@@]56CCCN5C[C@H](F)C6)nc4c3F)c12 [compound 315, 6-(7-(2-amino-3-cyano-7-fluorobenzo[b]thiophen-4-yl)-6-chloro-8-fluoro-2-(((2R,7aS)-2-fluorotetrahydro-1H-pyrrolizin-7a(5H)-yl)methoxy)quinazolin-4-yl)-N-(1-(trifluoromethyl)cyclopropyl)-2,6-diazaspiro[3.6]decane-2-carboxamide]
N#Cc1c(N)sc2c(F)ccc(-c3c(Cl)cc4c(N5CCCCC6(CN(C(=O)C78CC(C#N)(C7)C8)C6)C5)nc(OC[C@@]56CCCN5C[C@H](F)C6)nc4c3F)c12 [compound 321, 2-amino-4-(6-chloro-4-(2-(3-cyanobicyclo[1.1.1]pentane-1-carbonyl)-2,6-diazaspiro[3.6]decan-6-yl)-8-fluoro-2-(((2R,7aS)-2-fluorotetrahydro-1H-pyrrolizin-7a(5H)-yl)methoxy)quinazolin-7-yl)-7-fluorobenzo[b]thiophene-3-carbonitrile]
N#Cc1c(N)sc2c(F)ccc(-c3c(Cl)cc4c(N5CCCCC6(CN(C(=O)C7CC7)C6)C5)nc(OC[C@@]56CCCN5C[C@H](F)C6)nc4c3F)c12 [compound 281, 2-amino-4-(6-chloro-4-(2-(cyclopropanecarbonyl)-2,6-diazaspiro[3.6]decan-6-yl)-8-fluoro-2-(((2R,7aS)-2-fluorotetrahydro-1H-pyrrolizin-7a(5H)-yl)methoxy)quinazolin-7-yl)-7-fluorobenzo[b]thiophene-3-carbonitrile]
N#Cc1c(N)sc2c(F)ccc(-c3c(Cl)cc4c(N5CCCCC6(CN(C(=O)C7CC78CCOC8)C6)C5)nc(OC[C@@]56CCCN5C[C@H](F)C6)nc4c3F)c12 (stereo partly drawn) [compound 310, 4-(4-(2-(5-oxaspiro[2.4]heptane-1-carbonyl)-2,6-diazaspiro[3.6]decan-6-yl)-6-chloro-8-fluoro-2-(((2R,7aS)-2-fluorotetrahydro-1H-pyrrolizin-7a(5H)-yl)methoxy)quinazolin-7-yl)-2-amino-7-fluorobenzo [b]thiophene-3-carbonitrile]
